Structures can show the parent of a compound that is named as a salt.
Tests used:
[1] = molecular target: T1, human factor XIa (Homo sapiens, UniProt P03951); test: Measurement of FXIa inhibition (fluorogenic peptide substrate Boc-Glu(OBzl)-Ala-Arg-AMC); assay type: biochemical; settings: factor XIa from Kordia 0.45 nM, 15 min pre-incubation, 30 min at 22° C., fluorescence
T1 construct: purchased Kordia
Procedure: The factor XIa inhibition of the substances according to the invention is determined using a biochemical test system which utilizes the reaction of a peptidic factor XIa substrate to determine the enzymatic activity of human factor XIa. Here, factor XIa cleaves from the peptic factor XIa substrate the C-terminal aminomethylcoumarin (AMC), the fluorescence of which is measured. The determinations are carried out in microtitre plates.
Test substances are dissolved in dimethyl sulphoxide and serially diluted in dimethyl sulphoxide (3000 μM to 0.0078 μM; resulting final concentrations in the test: 50 μM to 0.00013 μM). In each case 1 μl of the diluted substance solutions is placed into the wells of white microtitre plates from Greiner (384 wells). Subsequently, the following are added successively: 20 μl of assay buffer (50 mmol/l Tris buffer pH 7.4; 100 mmol/l sodium chloride; 5 mmol/l calcium chloride; 0.1% bovine serum albumin) and 20 μl of factor XIa from Kordia (0.45 nM in assay buffer). After 15 min of incubation, the enzyme reaction is started by addition of 20 μl of the factor XIa substrate Boc-Glu(OBzl)-Ala-Arg-AMC dissolved in assay buffer (10 μM in assay buffer) from Bachem, the mixture is incubated at room temperature (22° C.) for 30 min and fluorescence is then measured (excitation: 360 nm, emission: 460 nm). The measured emissions of the test batches with test substance are compared to those of control batches without test substance (only dimethyl sulphoxide instead of test substance in dimethyl sulphoxide), and IC50 values are calculated from the concentration/activity relationships.

[2] = tested on: human and animal plasma; test: Determination of anticoagulatory activity: activated partial thromboplastin time (aPTT) in plasma; settings: concentration of test substance which brings about a 1.5-fold extension of the aPTT; plasma in vitro, C.K. Prest kit
Procedure: The anticoagulatory activity of the test substances is determined in vitro in human and animal plasma (for example mouse, rat, rabbit, pig and dog plasma). To this end, blood is drawn off in a mixing ratio of sodium citrate/blood of 1:9 using a 0.11 molar sodium citrate solution as receiver. Immediately after the blood has been drawn off, it is mixed thoroughly and centrifuged at about 4000 g for 15 minutes. The supernatant is pipetted off.
The activated partial thromboplastin time (aPTT) is determined in the presence of varying concentrations of test substance or the corresponding solvent using a commercial test kit (C.K. Prest from Diagnostica Stago). The test compounds are incubated with the plasma and the PTT reagent (cephalin, kaolin) at 37° C. for 3 minutes. Coagulation is then started by addition of a 25 mM aqueous calcium chloride solution, and the time when coagulation occurs is determined. The concentration of test substance which brings about a 1.5-fold extension of the aPTT is determined.

T1 sequence (P03951 388-625 limits assumed): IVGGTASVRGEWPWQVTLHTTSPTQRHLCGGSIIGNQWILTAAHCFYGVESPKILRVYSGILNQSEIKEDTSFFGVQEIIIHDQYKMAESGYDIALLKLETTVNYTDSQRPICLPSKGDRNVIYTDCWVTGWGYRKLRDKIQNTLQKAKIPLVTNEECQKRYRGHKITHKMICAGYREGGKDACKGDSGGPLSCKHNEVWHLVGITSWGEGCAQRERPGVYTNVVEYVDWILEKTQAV
T1 sequence (P03951 19-387 partner limits assumed): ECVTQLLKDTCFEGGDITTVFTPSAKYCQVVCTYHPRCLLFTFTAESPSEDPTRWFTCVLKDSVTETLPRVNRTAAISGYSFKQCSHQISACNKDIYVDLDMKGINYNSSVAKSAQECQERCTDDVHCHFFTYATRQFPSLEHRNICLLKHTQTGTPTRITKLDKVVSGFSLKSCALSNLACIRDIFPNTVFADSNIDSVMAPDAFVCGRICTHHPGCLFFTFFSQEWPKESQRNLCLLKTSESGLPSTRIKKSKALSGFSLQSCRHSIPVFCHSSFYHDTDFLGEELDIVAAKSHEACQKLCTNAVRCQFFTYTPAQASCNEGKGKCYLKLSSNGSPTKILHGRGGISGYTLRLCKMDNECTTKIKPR

| SMILES | IC50 [1] | aPTT [2] |
| --- | --- | --- |
| Cc1ccc(S(=O)(=O)NCc2ccccc2)cc1-c1cccc(C[C@H](NC(=O)[C@H]2CC[C@H](CN)CC2)C(=O)Nc2ccc(-c3nnn[nH]3)cc2)c1 [Example 1, trans-4-(Aminomethyl)-N-[(2S)-3-[5′-(benzylsulphamoyl)-2′-methylbiphenyl-3-yl]-1-oxo-1-{[4-(1H-tetrazol-5-yl)phenyl]amino}propan-2-yl]cyclohexanecarboxamide hydrochloride] | 0.4 nM | 0.1 µmol/L |
| Cc1ccc(S(=O)(=O)N2CCCC2)cc1-c1cccc(C[C@H](NC(=O)[C@H]2CC[C@H](CN)CC2)C(=O)Nc2ccc(-c3nnn[nH]3)cc2)c1 [Example 2, trans-4-(Aminomethyl)-N-[(2S)-3-[2′-methyl-5′-(pyrrolidin-1-ylsulphonyl)biphenyl-3-yl]-1-oxo-1-{[4-(1H-tetrazol-5-yl)phenyl]amino}propan-2-yl]cyclohexanecarboxamide hydrochloride] | 1.1 nM | 0.08 µmol/L |
| Cc1ccc(S(=O)(=O)N(C)C)cc1-c1cccc(C[C@H](NC(=O)[C@H]2CC[C@H](CN)CC2)C(=O)Nc2ccc(-c3nnn[nH]3)cc2)c1 [Example 4, trans-4-(Aminomethyl)-N-[(2S)-3-[5′-(dimethylsulphamoyl)-2′-methylbiphenyl-3-yl]-1-oxo-1-{[4-(1H-tetrazol-5-yl)phenyl]amino}propan-2-yl]cyclohexanecarboxamide hydrochloride] | 1.5 nM | 0.21 µmol/L |
| NC[C@H]1CC[C@H](C(=O)N[C@@H](Cc2cccc(-c3cccc(S(N)(=O)=O)c3)c2)C(=O)Nc2ccc(-c3nnn[nH]3)cc2)CC1 [Example 5, trans-4-(Aminomethyl)-N-[(2S)-1-oxo-3-(3′-sulphamoylbiphenyl-3-yl)-1-{[4-(1H-tetrazol-5-yl)phenyl]amino}propan-2-yl]cyclohexanecarboxamide hydrochloride] | 3.4 nM | 0.23 µmol/L |
| NC[C@H]1CC[C@H](C(=O)N[C@@H](Cc2cccc(-c3cccc(S(=O)(=O)NC4CC4)c3)c2)C(=O)Nc2ccc(-c3nnn[nH]3)cc2)CC1 [Example 6, trans-4-(Aminomethyl)-N-[(2S)-3-[3′-(cyclopropylsulphamoyl)biphenyl-3-yl]-1-oxo-1-{[4-(1H-tetrazol-5-yl)phenyl]amino}propan-2-yl]cyclohexanecarboxamide hydrochloride] | 1.9 nM | 0.27 µmol/L |
| Cc1cc(S(=O)(=O)N(C)C)ccc1-c1cccc(C[C@H](NC(=O)[C@H]2CC[C@H](CN)CC2)C(=O)Nc2ccc(-c3nnn[nH]3)cc2)c1 [Example 7, trans-4-(Aminomethyl)-N-[(2S)-3-[4′-(dimethylsulphamoyl)-2′-methylbiphenyl-3-yl]-1-oxo-1-{[4-(1H-tetrazol-5-yl)phenyl]amino}propan-2-yl]cyclohexanecarboxamide hydrochloride] | 1.7 nM | 0.33 µmol/L |
| COc1ccc(-c2cccc(C[C@H](NC(=O)[C@H]3CC[C@H](CN)CC3)C(=O)Nc3ccc(-c4nnn[nH]4)cc3)c2)cc1S(=O)(=O)N1CCOCC1 [Example 8, trans-4-(Aminomethyl)-N-[(2S)-3-[4′-methoxy-3′-(morpholin-4-ylsulphonyl)biphenyl-3-yl]-1-oxo-1-{[4-(1H-tetrazol-5-yl)phenyl]amino}propan-2-yl]cyclohexanecarboxamide hydrochloride] | 3.8 nM | 0.41 µmol/L |
| Cc1ccc(S(=O)(=O)N2CCOCC2)cc1-c1cccc(C[C@H](NC(=O)[C@H]2CC[C@H](CN)CC2)C(=O)Nc2ccc(-c3n[nH]c(=O)[nH]3)cc2)c1 [Example 9, trans-4-(Aminomethyl)-N-[(2S)-3-[2′-methyl-5′-(morpholin-4-ylsulphonyl)biphenyl-3-yl]-1-oxo-1-{[4-(5-oxo-4,5-dihydro-1H-1,2,4-triazol-3-yl)phenyl]amino}propan-2-yl]cyclohexanecarboxamide hydrochloride] | 9.6 nM | 0.14 µmol/L |
| Cc1ccc(S(=O)(=O)N2CCOCC2)cc1-c1cccc(C[C@H](NC(=O)[C@H]2CC[C@H](CN)CC2)C(=O)Nc2ccc3[nH]c(=O)[nH]c3c2)c1 [Example 10, trans-4-(Aminomethyl)-N-{(2S)-3-[2′-methyl-5′-(morpholin-4-ylsulphonyl)biphenyl-3-yl]-1-oxo-1-[(2-oxo-2,3-dihydro-1H-benzimidazol-5-yl)amino]propan-2-yl}cyclohexanecarboxamide hydrochloride] | 13 nM | 0.23 µmol/L |
| Cc1cnccc1-c1cccc(C[C@H](NC(=O)[C@H]2CC[C@H](CN)CC2)C(=O)Nc2ccc3[nH]c(=O)[nH]c3c2)c1 [Example 75, N-alpha-{[trans-4-(Aminomethyl)cyclohexyl]carbonyl}-3-(3-methylpyridin-4-yl)-N-(2-oxo-2,3-dihydro-1H-benzimidazol-5-yl)-L-phenylalaninamide hydrochloride] | 35 nM | – |
| CN1CCN(c2cc(-c3cccc(C[C@H](NC(=O)[C@H]4CC[C@H](CN)CC4)C(=O)Nc4ccc5[nH]c(=O)[nH]c5c4)c3)ccn2)CC1 [Example 76, N-alpha-{[trans-4-(Aminomethyl)cyclohexyl]carbonyl}-3-[2-(4-methylpiperazin-1-yl)pyridin-4-yl]-N-(2-oxo-2,3-dihydro-1H-benzimidazol-5-yl)-L-phenylalaninamide hydrochloride] | 59 nM | – |
| Cc1cnccc1-c1cccc(C[C@H](NC(=O)[C@H]2CC[C@H](CN)CC2)C(=O)Nc2ccc(-c3n[nH]c(=O)[nH]3)cc2)c1 [Example 89, N-alpha-{[trans-4-(Aminomethyl)cyclohexyl]carbonyl}-3-(3-methylpyridin-4-yl)-N-[4-(5-oxo-4,5-dihydro-1H-1,2,4-triazol-3-yl)phenyl]-L-phenylalaninamide hydrochloride] | – | 0.46 µmol/L |

The next lines start with results.

| IC50 [1] | SMILES | aPTT [2] |
| --- | --- | --- |
| 7.3 nM | CN1CCN(c2ccc(-c3cccc(C[C@H](NC(=O)[C@H]4CC[C@H](CN)CC4)C(=O)Nc4ccc(-c5nnn[nH]5)cc4)c3)cn2)CC1 [Example 77, N-alpha-{[trans-4-(Aminomethyl)cyclohexyl]carbonyl}-3-[6-(4-methylpiperazin-1-yl)pyridin-3-yl]-N-[4-(1H-tetrazol-5-yl)phenyl]-L-phenylalaninamide hydrochloride] | – |
| 3.1 nM | NC[C@H]1CC[C@H](C(=O)N[C@@H](Cc2cccc(-c3ccccc3C(F)(F)F)c2)C(=O)Nc2ccc(-c3nnn[nH]3)cc2)CC1 [Example 84, trans-4-(Aminomethyl)-N-{(25)-1-oxo-1-{[4-(1H-tetrazol-5-yl)phenyl]amino}-3-[2′-(trifluoromethyl)biphenyl-3-yl]propan-2-yl}cyclohexanecarboxamide hydrochloride] | – |
| 2.4 nM | NC[C@H]1CC[C@H](C(=O)N[C@@H](Cc2cccc(-c3ccnc(N4CCOCC4)c3)c2)C(=O)Nc2ccc(-c3nn[nH]n3)cc2)CC1 [Example 85, N-alpha-{[trans-4-(Aminomethyl)cyclohexyl]carbonyl}-3-[2-(morpholin-4-yl)pyridin-4-yl]-N-[4-(2H-tetrazol-5-yl)phenyl]-L-phenylalaninamide hydrochloride] | – |
| 29 nM | NC[C@H]1CC[C@H](C(=O)N[C@@H](Cc2cccc(-c3cnc(N4CCOCC4)nc3)c2)C(=O)Nc2ccc(-c3n[nH]c(=O)[nH]3)cc2)CC1 [Example 88, N-alpha-{[trans-4-(Aminomethyl)cyclohexyl]carbonyl}-3-[2-(morpholin-4-yl)pyrimidin-5-yl]-N-[4-(5-oxo-4,5-dihydro-1H-1,2,4-triazol-3-yl)phenyl]-L-phenylalaninamide hydrochloride] | – |
| 8.9 nM | NC[C@H]1CC[C@H](C(=O)N[C@@H](Cc2cccc(-c3cnc(O)nc3)c2)C(=O)Nc2ccc(-c3nnn[nH]3)cc2)CC1 [Example 99, N-alpha-{[trans-4-(Aminomethyl)cyclohexyl]carbonyl}-3-(2-hydroxypyrimidin-5-yl)-N-[4-(1H-tetrazol-5-yl)phenyl]-L-phenylalaninamide hydrochloride] | – |
| 8.6 nM | COCc1nnc(-c2ccc(NC(=O)[C@H](Cc3cccc(-c4ccccc4C(C)C)c3)NC(=O)[C@H]3CC[C@H](CN)CC3)cc2)[nH]1 [Example 104, trans-4-(Aminomethyl)-N-[(2S)-3-(2′-isopropylbiphenyl-3-yl)-1-({4-[3-(methoxymethyl)-4H-1,2,4-triazol-5-yl]phenyl}amino)-1-oxopropan-2-yl]cyclohexanecarboxamide hydrochloride] | – |

Source: patent publication US20160244437A1, “SUBSTITUTED PHENYLALANINE DERIVATIVES” (BAYER PHARMA AKTIENGESELLSCHAFT, priority 2013, published 2016)
